Test results taken from ChEMBL document CHEMBL4371096, “Polyoxygenated Cyclohexenes and Their Chlorinated Derivatives from the Leaves of Uvaria cherrevensis” (J Nat Prod, 2019).

Experiments:
Plasmodium falciparum [1] = assay: Antimalarial activity against drug-sensitive Plasmodium falciparum TM4/8.2 after 48 hrs by SYBR Green1 dye based fluorescence assay; type: functional, organism-based; conditions: TM4/8.2, 48 h
Plasmodium falciparum [2] = assay: Antimalarial activity against drug-resistant Plasmodium falciparum K1CB1 after 48 hrs by SYBR Green1 dye based fluorescence assay; type: functional, organism-based; conditions: K1CB1, 48 h
KB = assay: Cytotoxicity against human KB cells; type: functional, cell-based
Vero = assay: Cytotoxicity against African green monkey Vero cells; type: cell-based; conditions: Chlorocebus sabaeus

Measured: IC50

CC1(C)O[C@H]2C=C[C@@H](OC(=O)c3ccccc3)[C@H](O)[C@@]2(COC(=O)c2ccccc2)O1
> 50 µM: all assays above

O=C(OC[C@]1(O)[C@H](OC(=O)c2ccccc2)C=C[C@@H](OC(=O)c2ccccc2)[C@@H]1O)c1ccccc1
> 50 µM: all assays above

O=C(OCC1=C[C@H]2Oc3ccccc3C[C@H]2[C@@H](OC(=O)c2ccccc2)[C@@H]1O)c1ccccc1
> 50 µM: all assays above

CC(=O)O[C@H]1C=CC=C(COC(=O)c2ccccc2)[C@@H]1O
> 50 µM: all assays above

O=C(OC[C@]1(O)[C@H](Cl)C=C[C@@H](OC(=O)c2ccccc2)[C@@H]1O)c1ccccc1
> 50 µM: all assays above

O=C(OCC1=C[C@@H](O)[C@H](O)[C@H](OC(=O)c2ccccc2)[C@H]1O)c1ccccc1
> 50 µM: all assays above

O=C(OC[C@]1(O)[C@H](Cl)C=C[C@H](O)[C@H]1O)c1ccccc1
> 50 µM: all assays above

CC(=O)O[C@H]1C=C[C@@H](Cl)[C@@](O)(COC(=O)c2ccccc2)[C@@H]1O
> 50 µM: all assays above

O=C(OC[C@]12O[C@H]1C=C[C@@H](OC(=O)c1ccccc1)[C@H]2O)c1ccccc1
> 50 µM: all assays above

O=C(OC[C@]1(O)[C@@H](O)C=C[C@@H](O)[C@@H]1O)c1ccccc1
> 50 µM: all assays above

CC(=O)O[C@H]1C=CC=C[C@@]1(O)COC(=O)c1ccccc1
> 50 µM: all assays above

CC(=O)O[C@H]1C=C[C@@H](O)[C@H](O)[C@@]1(O)COC(=O)c1ccccc1
> 50 µM: all assays above

CC(=O)O[C@@H]1C=C[C@@H](OC(=O)c2ccccc2)[C@H](O)[C@]1(O)COC(=O)c1ccccc1
> 50 µM: all assays above

O=C(OC/C=C/C=C/[C@H](O)COC(=O)c1ccccc1)c1ccccc1
> 50 µM: all assays above

COc1ccc2c(c1)C[C@H]1[C@@H](OC(=O)c3ccccc3)[C@H](O)C(COC(=O)c3ccccc3)=C[C@H]1O2
> 50 µM: all assays above
